Results from patent US20250170090A1, “METHOD FOR PREVENTING OR TREATING DISEASE OR DISORDER ASSOCIATED WITH ANTINEOPLASTIC AGENT” (ONQUALITY PHARMACEUTICALS CHINA LTD., priority 2022, published 2025).

Tests used:
[1] = test system: human oral keratinocytes (HOK); assay: CCK-8 cell viability: alleviation of proliferative toxicity of anti-tumor agents on HOK (Table 8-2); format: cell-based; conditions: NO-NSAID 100 μM
Outline: (§1)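 Cells seeded at 5,000-10,000 per well and exposed to anti-tumor agent (DMSO solvent) alone or with NO-NSAID (ethanol or water solvent), with solvent controls used for correction. Viability read by CCK-8 after 24-48 hours; proliferative toxicity and its alleviation compared by t test.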

[2] = test system: human immortalized keratinocytes (HaCaT); assay: CCK-8 cell viability: alleviation of proliferative toxicity of anti-tumor agents on HaCaT (Table 8-1); format: cell-based; conditions: NO-NSAID 100 μM, percentage increase in viable cells vs anti-tumor agent alone
Outline: as §1

[3] = test system: human intestinal epithelial cells (FHs 74 Int); assay: CCK-8 cell viability: alleviation of proliferative toxicity of anti-tumor agents on FHs 74 Int (Table 8-4); format: cell-based; conditions: NO-NSAID 100 μM
Outline: as §1

[4] = test system: hand-foot syndrome caused by anti-tumor agents; assay: Treatment of established hand-foot syndrome caused by anti-tumor agents in rats (Table 4); format: in vivo
Outline: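 Rats (about 200 g), 10 per group, given anti-tumor agent by gavage (Cremophor EL:ethanol 1:1, diluted about 3 times with PBS), treated for established hand-foot syndrome with NO-NSAID ointment. Control rate is the blank-group incidence minus the treatment-group incidence.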

[5] = test system: chemotherapy-induced hand-foot syndrome; assay: Prevention of chemotherapy-induced hand-foot syndrome in rat models (Table 5); format: in vivo, SD rats
Outline: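 SD rats (~200 g, 10 per group) received chemotherapy drugs by gavage at 1 mL/100 g, then NO-NSAID ointment or blank ointment was applied to the paws. Hand-foot syndrome incidence was recorded, and control rate was taken as blank-group incidence minus treated-group incidence.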

[6] = test system: hand-foot syndrome caused by macromolecular anti-tumor agents; assay: Prevention of hand-foot syndrome caused by macromolecular protein inhibitors in rats (Table 3); format: in vivo
[7] = test system: gastric epithelial cells (GES-1); assay: CCK-8 cell viability: alleviation of proliferative toxicity of anti-tumor agents on GES-1 (Table 8-3); format: cell-based, human; conditions: NO-NSAID 100 μM
Outline: as §1

Structure (SMILES): COc1ccc2cc(C(C)C(=O)OCCCCO[N+](=O)[O-])ccc2c1 (stereo not drawn) [Compound A5]
- Response rate % (average) ([1]; Afatinib (10 μM)): 36%
- Response rate % (average) ([1]; Cabozantinib (5 μM)): 32%
- Response rate % (average) ([1]; Dabrafenib (10 μM)): 8%
- Response rate % (average) ([1]; Everolimus (5 μM)): 10%
- Response rate % (average) ([1]; Infigratinib (15 μM)): 17%
- Response rate % (average) ([1]; Lapatinib (5 μM)): 22%
- Response rate % (average) ([1]; Lenvatinib (10 μM)): 25%
- Response rate % (average) ([1]; Olmutinib (10 μM)): 38%
- Response rate % (average) ([1]; Regorafenib (5 μM)): −2%
- Response rate % (average) ([1]; Selumetinib (5 μM)): 8%
- Response rate % (average) ([1]; Sorafenib (5 μM)): 28%
- Response rate % (average) ([1]; Sunitinib (5 μM)): 29%
- Response rate % (average) ([2]; Afatinib (10 μM)): 32%
- Response rate % (average) ([2]; Cabozantinib (5 μM)): 44%
- Response rate % (average) ([2]; Dabrafenib (10 μM)): 7%
- Response rate % (average) ([2]; Everolimus (5 μM)): 9%
- Response rate % (average) ([2]; Infigratinib (15 μM)): 12%
- Response rate % (average) ([2]; Lapatinib (5 μM)): 41%
- Response rate % (average) ([2]; Lenvatinib (10 μM)): 9%
- Response rate % (average) ([2]; Olmutinib (10 μM)): 40%
- Response rate % (average) ([2]; Regorafenib (5 μM)): 22%
- Response rate % (average) ([2]; Selumetinib (5 μM)): 13%
- Response rate % (average) ([2]; Sorafenib (5 μM)): 31%
- Response rate % (average) ([2]; Sunitinib (5 μM)): 33%
- Response rate % (average) ([3]; Afatinib (10 μM)): 34%
- Response rate % (average) ([3]; Cabozantinib (5 μM)): 36%
- Response rate % (average) ([3]; Dabrafenib (10 μM)): −3%
- Response rate % (average) ([3]; Everolimus (5 μM)): 28%
- Response rate % (average) ([3]; Infigratinib (15 μM)): 16%
- Response rate % (average) ([3]; Lapatinib (5 μM)): 43%
- Response rate % (average) ([3]; Lenvatinib (10 μM)): 32%
- Response rate % (average) ([3]; Olmutinib (10 μM)): 31%
- Response rate % (average) ([3]; Regorafenib (5 μM)): 17%
- Response rate % (average) ([3]; Selumetinib (5 μM)): 23%
- Response rate % (average) ([3]; Sorafenib (5 μM)): 24%
- Response rate % (average) ([3]; Sunitinib (5 μM)): 38%
- Response rate ([4]; Apatinib 105 mg/kg once every two days, ointment 2.50% wt, Days 6): 28.57%
- Response rate ([4]; Cabozantinib 50 mg/kg once every two days, ointment 1% wt, Days 11): 33.33%
- Response rate ([4]; Encorafenib 80 mg/kg once every two days, ointment 2.50% wt, Days 7): 40.00%
- Response rate ([4]; Erdafitinib 45 mg/kg once every two days, ointment 2.50% wt, Days 13): 40.00%
- Response rate ([4]; Fruquintinib 40 mg/kg once every two days, ointment 2.50% wt, Days 8): 28.57%
- Response rate ([4]; Lenvatinib 65 mg/kg once a day, ointment 2.50% wt, Days 12): 42.86%
- Response rate ([4]; Olmutinib 100 mg/kg once every two days, ointment 2.50% wt, Days 10): 50.00%
- Response rate ([4]; Regorafenib 90 mg/kg once every two days, ointment 5% wt, Days 6): 57.14%
- Response rate ([4]; Sorafenib 80 mg/kg once every two days, ointment 2.50% wt, Days 5): 50.00%
- Response rate ([4]; Sunitinib 120 mg/kg once every two days, ointment 2.50% wt, Days 7): 33.33%
- Control rate ([5]; Acelarin 130 mg/kg twice a week, ointment 1% wt, Days 30): 28.57%
- Control rate ([5]; Acelarin 130 mg/kg twice a week, ointment 2.50% wt, Days 30): 57.14%
- Control rate ([5]; Capecitabine 4000 mg/kg once a day, ointment 1% wt, Days 40): 12.50%
- Control rate ([5]; Capecitabine 4000 mg/kg once a day, ointment 2.50% wt, Days 40): 22.22%
- Control rate ([5]; Capecitabine 4000 mg/kg once a day, ointment 5% wt, Days 40): 50.00%
- Control rate ([5]; Cytarabine 120 mg/kg twice a day, ointment 1% wt, Days 30): 14.29%
- Control rate ([5]; Cytarabine 120 mg/kg twice a day, ointment 2.50% wt, Days 30): 28.57%
- Control rate ([5]; Cytarabine 120 mg/kg twice a day, ointment 5% wt, Days 30): 57.14%
- Control rate ([5]; Doxorubicin 7 mg/kg once every three days, ointment 1% wt, Days 30): 37.50%
- Control rate ([5]; Doxorubicin 7 mg/kg once every three days, ointment 2.50% wt, Days 30): 50.00%
- Control rate ([6]; Bevacizumab, 5-FU combination, tail vein injection once a week, ointment 2.50% wt, Days 18): 50.00%
- Control rate ([6]; Bevacizumab, 5-FU combination, tail vein injection once a week, ointment 5% wt, Days 18): 66.67%
- Control rate ([6]; Ramucirumab combined with paclitaxel, intraperitoneal injection once a week, ointment 2.50% wt, Days 23): 33.33%
- Control rate ([6]; Ramucirumab combined with paclitaxel, intraperitoneal injection once a week, ointment 5% wt, Days 23): 50.00%
- Response rate % (average) ([7]; Afatinib (10 μM)): 18%
- Response rate % (average) ([7]; Cabozantinib (5 μM)): 37%
- Response rate % (average) ([7]; Dabrafenib (10 μM)): 12%
- Response rate % (average) ([7]; Everolimus (5 μM)): 33%
- Response rate % (average) ([7]; Infigratinib (15 μM)): 36%
- Response rate % (average) ([7]; Lapatinib (5 μM)): 40%
- Response rate % (average) ([7]; Lenvatinib (10 μM)): 29%
- Response rate % (average) ([7]; Olmutinib (10 μM)): 35%
- Response rate % (average) ([7]; Regorafenib (5 μM)): 14%
- Response rate % (average) ([7]; Selumetinib (5 μM)): 12%
- Response rate % (average) ([7]; Sorafenib (5 μM)): 22%
- Response rate % (average) ([7]; Sunitinib (5 μM)): 21%
